These results are taken from PubChem BioAssay AID248 (DTP/NCI, 2004).

Inconclusive results and toxic doses are left out.

This experiment relates to L1210 leukemia ip in BDF1 mice, survival T/C. Nature of the experiment: NCI In Vivo Anticancer Drug Screen. Data for tumor model L1210 Leukemia (intraperitoneal) in B6D2F1 (BDF1) mice. To be noted: endpoint: mean survival time, higher = longer survival. An outline of the steps:
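Tumor was transplanted into mice, which were then dosed with test compound or vehicle alone. Survival was recorded for each group, and the treated figure was expressed relative to the control figure.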

The mark [1] stands for this setting: dose: 100.0 mg/kg/injection, schedule: Q04DX003 (ip), vehicle: Klucel (hydroxypropylcellulose) (HPC).
The mark [2] stands for this setting: dose: 200.0 mg/kg/injection, schedule: Q04DX003 (ip), vehicle: Klucel (hydroxypropylcellulose) (HPC).
Where [3] appears, read: dose: 400.0 mg/kg/injection, schedule: Q04DX003 (ip), vehicle: Klucel (hydroxypropylcellulose) (HPC).
The mark [4] stands for this setting: dose: 50.0 mg/kg/injection, schedule: Q01DX009 (ip), vehicle: Klucel (hydroxypropylcellulose) (HPC).
Where [5] appears, read: dose: 100.0 mg/kg/injection, schedule: Q01DX009 (ip), vehicle: Klucel (hydroxypropylcellulose) (HPC).
The mark [6] stands for this setting: dose: 200.0 mg/kg/injection, schedule: Q01DX009 (ip), vehicle: Klucel (hydroxypropylcellulose) (HPC).
Where [7] appears, read: dose: 100.0 mg/kg/injection, schedule: Q01DX001 (ip), vehicle: carboxymethylcellulose (CMC).
Where [8] appears, read: dose: 200.0 mg/kg/injection, schedule: Q01DX001 (ip), vehicle: carboxymethylcellulose (CMC).
Setting [9] is: dose: 400.0 mg/kg/injection, schedule: Q01DX001 (ip), vehicle: carboxymethylcellulose (CMC).
Where [10] appears, read: dose: 100.0 mg/kg/injection, schedule: Q01DX001 (ip), vehicle: Klucel (hydroxypropylcellulose) (HPC).
Setting [11] is: dose: 200.0 mg/kg/injection, schedule: Q01DX001 (ip), vehicle: Klucel (hydroxypropylcellulose) (HPC).
Setting [12] is: dose: 400.0 mg/kg/injection, schedule: Q01DX001 (ip), vehicle: Klucel (hydroxypropylcellulose) (HPC).
[13] abbreviates: dose: 400.0 mg/kg/injection, schedule: Q01DX009 (ip), vehicle: Klucel (hydroxypropylcellulose) (HPC).

As to `O=C(CC(=O)c1cccc([N+](=O)[O-])c1)Nc1ccccc1Br`, the T/C was 94 % of control under setting [1], 91 % of control under setting [2] and 94 % of control under setting [3].
As for `CC(=O)C1(c2ccccc2)OC1c1ccccc1` (stereo unspecified), the T/C under setting [4] is 96 % of control; the T/C under setting [5] was 112 % of control; the T/C under setting [1] was 90 % of control; the T/C under setting [6] is 96 % of control; the T/C under setting [2] is 95 % of control.
Turning to `CC(CO)(CO)NC(=O)c1ccc([N+](=O)[O-])cc1`, the T/C reads like this: under setting [7], 94 % of control; under setting [8], 100 % of control; under setting [9], 94 % of control.
With `CCOC(=O)c1cnc(SCc2ccccc2)[nH]c1=O`, the T/C was 101 % of control (dose: 100.0 mg/kg/injection, schedule: Q01DX009 (ip), vehicle: saline with Tween-80); 91 % of control (dose: 200.0 mg/kg/injection, schedule: Q01DX009 (ip), vehicle: saline with Tween-80); 92 % of control (dose: 400.0 mg/kg/injection, schedule: Q01DX009 (ip), vehicle: saline with Tween-80).
`CCOc1ncc([N+](=O)[O-])cn1`: the T/C is 101 % of control under setting [1], 114 % of control under setting [2] and 103 % of control under setting [3].
In the case of `COc1cc(C=Nc2ccc3c(c2)ncn3C)ccc1N(CCCl)CCCl`, for the setting “dose: 100.0 mg/kg/injection, schedule: Q04DX002 (ip), vehicle: Klucel (hydroxypropylcellulose) (HPC)”, the T/C is 153 % of control.
On to `O=C1CCOc2ccc3ccccc3c21`, for which the T/C was 101 % of control under setting [10]; 109 % of control under setting [5]; 98 % of control under setting [11]; 101 % of control under setting [6]; 90 % of control under setting [12]; 111 % of control under setting [13].
Turning to `COc1ccc([N+](=O)[O-])c2c1CONC2c1c(CO)cnc(C)c1O` (stereo unspecified), the T/C is 90 % of control (dose: 100.0 mg/kg/injection, schedule: Q04DX003 (ip), vehicle: acetone); 96 % of control (dose: 200.0 mg/kg/injection, schedule: Q04DX003 (ip), vehicle: acetone); 89 % of control (dose: 400.0 mg/kg/injection, schedule: Q04DX003 (ip), vehicle: acetone).
Turning to `CNC(=O)NC1C(CO)OC2OC(C)(C)OC21` (stereo unspecified), the T/C was 100 % of control (dose: 100.0 mg/kg/injection, schedule: Q04DX002 (ip), vehicle: saline); 97 % of control (dose: 200.0 mg/kg/injection, schedule: Q04DX002 (ip), vehicle: saline); 94 % of control (dose: 400.0 mg/kg/injection, schedule: Q04DX002 (ip), vehicle: saline).
For the molecule `Nc1ccc2c(c1)C(=O)c1c(F)c(F)c(F)c(F)c1-2`, the T/C was 97 % of control (dose: 50.0 mg/kg/injection, schedule: Q01DX001 (ip), vehicle: carboxymethylcellulose (CMC)); 103 % of control under setting [7]; 97 % of control under setting [8]; 100 % of control under setting [9].
With `OC(/C=C/C(O)c1ccccc1)c1ccccc1` (stereo unspecified), the T/C (dose: 12.5 mg/kg/injection, schedule: Q01DX009 (ip), vehicle: Klucel (hydroxypropylcellulose) (HPC)) is 97 % of control; the T/C (dose: 12.5 mg/kg/injection, schedule: Q04DX003 (ip), vehicle: Klucel (hydroxypropylcellulose) (HPC)) was 95 % of control; the T/C (dose: 25.0 mg/kg/injection, schedule: Q01DX009 (ip), vehicle: Klucel (hydroxypropylcellulose) (HPC)) is 98 % of control; the T/C (dose: 25.0 mg/kg/injection, schedule: Q04DX003 (ip), vehicle: Klucel (hydroxypropylcellulose) (HPC)) was 100 % of control; the T/C under setting [4] was 98 % of control; the T/C (dose: 50.0 mg/kg/injection, schedule: Q04DX003 (ip), vehicle: Klucel (hydroxypropylcellulose) (HPC)) is 94 % of control.
On to `OC(CC(O)(c1ccccc1)c1ccccc1)(c1ccccc1)c1ccccc1`, for which the T/C (dose: 9.5 mg/kg/injection, schedule: Q01DX001 (ip), vehicle: other) was 93 % of control; the T/C (dose: 19.0 mg/kg/injection, schedule: Q01DX001 (ip), vehicle: other) was 96 % of control; the T/C (dose: 38.0 mg/kg/injection, schedule: Q01DX001 (ip), vehicle: other) is 93 % of control.
As to `[O-][n+]1cc(-c2ccccc2)cc2ccccc21`, the T/C (dose: 100.0 mg/kg/injection, schedule: Q01DX001 (ip), vehicle: saline) was 96 % of control.
For `COc1ccc(OC)c(NC(=S)Nc2ccccc2)c1`, the T/C is 98 % of control under setting [5], 97 % of control under setting [6] and 92 % of control under setting [13].
Turning to `O=C1c2c(Cl)cccc2Cc2cccc(Cl)c21`, the T/C is 107 % of control (dose: 37.5 mg/kg/injection, schedule: Q01DX001 (ip), vehicle: Klucel (hydroxypropylcellulose) (HPC)); 102 % of control (dose: 75.0 mg/kg/injection, schedule: Q01DX001 (ip), vehicle: Klucel (hydroxypropylcellulose) (HPC)); 100 % of control (dose: 150.0 mg/kg/injection, schedule: Q01DX001 (ip), vehicle: Klucel (hydroxypropylcellulose) (HPC)).
Consider `Cc1ccc(C)c(NC(=O)Nc2ccc(S(N)(=O)=O)cc2)c1`, for which the T/C is 91 % of control under setting [5], 92 % of control under setting [6] and 96 % of control under setting [13].
The like results for `CCCCC(CC)COC(=O)CC(O)C(=O)OCC(CC)CCCC` (stereo unspecified) were, in that order, 103 % of control, 100 % of control and 103 % of control.
As to `CC(Cl)(/N=N\C(C)(Cl)c1ccc(Cl)cc1)c1ccc(Cl)cc1` (stereo unspecified), the T/C reads like this: under setting [10], 96 % of control; under setting [5], 92 % of control; under setting [1], 103 % of control; under setting [11], 92 % of control; under setting [6], 106 % of control; under setting [2], 103 % of control. The T/C under setting [12] is 96 % of control, the T/C under setting [13] was 98 % of control and the T/C under setting [3] is 93 % of control.
Take `COc1ccc(C2NC(=O)c3ccccc3N2)c(OC)c1OC` (stereo unspecified): the T/C is, setting by setting: under setting [5], 105 % of control; under setting [1], 97 % of control; under setting [6], 100 % of control; under setting [2], 101 % of control; under setting [13], 106 % of control; under setting [3], 102 % of control.
